Experimental data from paper PMC12523843, “Kuwanon A Targeted YWHAB in Hepatocellular Carcinoma Cells to Inhibit the Raf/MEK/ERK Signaling Pathway” (Cells, 2025).
Where two headings read alike, the source gives them in different places. Blank lines part the entries; values can stand above or below the molecule they belong to.

Experiments:
[1] = test system: normal human liver cells (L-O2); assay: MTT IC50 determination in normal liver cells; assay type: cell-based; settings: L-O2, MTT method
Description: (§1) Cell viability was assessed using MTT experiments. Cells, together with KA, were seeded into 96-well plates at a density of 2000 cells per well with three replicates per condition. DMSO was used as a control. At designated time points, 20 μL of MTT (Sigma, St. Louis, MO, USA) solution was added to each well and incubated for 3 h. After removing the culture medium, 200 μL of DMSO was added to dissolve the formazan crystals. The absorbance was then measured using a microplate reader at a wavelength of 560 nm.

[2] = test system: MHCC97 H cells; assay: MTT IC50 determination in MHCC97 H; assay type: cell-based, human; settings: MTT method, read-out: IC50 in MHCC97 H (screen)
Description: as §1

[3] = test system: MHCC97 H cells; assay: Transwell migration screen of selected compounds; assay type: cell-based, human; settings: compounds at an IC50 concentration
Description: (§2) The Transwell assay measured the migration and invasion of cells by calculating the number of cells that passed through the material. Prior to the Transwell migration assay, cells were serum-starved in FBS-free culture medium for 24 h. The cells were then detached using trypsin, washed 1–2 times with PBS, and resuspended in DMEM. Approximately 50,000–100,000 cells were seeded into the upper chamber of the Transwell insert. The lower chamber was filled with 600 μL of complete medium containing the test compound. The Transwell system was incubated for 12 h under standard culture conditions (37 °C, 5% CO2). After incubation, the migrated cells on the lower membrane surface were fixed with 4% paraformaldehyde (PFA) and stained with 0.1% crystal violet. Non-migrated cells remaining in the upper chamber were carefully removed with a cotton swab. Finally, the stained cells were visualized under a microscope. If matrix gel was needed, it should be added according to the instructions (Beyotime, Shanghai, China) before the cells were seeded.

[4] = test system: MHCC97H and SMMC 7721 cells; assay: CCK8 cell viability screen of mulberry active substances; assay type: cell-based, human; settings: 10 μM, 48 h
Description: The CCK8 assay is used to investigate the effect of compounds on cell viability by measuring the amount of formazan dye. Firstly, 8000 cells were inoculated into each well of the 96-well plate with three replicates per condition. At the same time, add the corresponding mulberry active substances. After 48 h of incubation, 20 μL of the Cell Counting Kit-8 (CCK8) reagent (Beyotime, Shanghai, China) was added to each well. After being cultured under 37 °C and 5% carbon dioxide for 2–3 h, the absorbance was measured at 450 nm.

[5] = test system: SMMC 7721 cells; parameters: method as in MCE website (https://www.medchemexpress.cn/); settings: ref MCE website (https://www.medchemexpress.cn/); read-out: IC50 of Sorafenib in SMMC 7721; cited from earlier work
[6] = test system: MHCC97 H cells; parameters: method as in MCE website (https://www.medchemexpress.cn/); settings: ref MCE website (https://www.medchemexpress.cn/); read-out: IC50 of Sorafenib in MHCC97 H; cited from earlier work
[7] = test system: HCC cells (MHCC97 H and SMMC 7721); assay: Transwell migration (without Matrix-Gel) and invasion (with Matrix-Gel) assay; assay type: cell-based, human; settings: Sorafenib 10 μM alone or 10 μM KA and 10 μM Sorafenib, 48 h
Description: as §2, with “The Transwell system was incubated for 12 h under standard culture conditions (37 °C, 5% CO2).” left out

[8] = molecular target: T1, YWHAB (tyrosine 3-monooxygenase/tryptophan 5-monooxygenase activation protein beta), endogenous in HCC cells (human (endogenous in MHCC97 H and SMMC 7721)), P31946; assay: native gel or EMSA; Blue native PAGE of cell lysates (IP cell lysis buffer, Coomassie G-250), then immunoblot; cells treated with KA or DMSO (less dimer with KA); settings: remark: other sources report otherwise
T1 chain: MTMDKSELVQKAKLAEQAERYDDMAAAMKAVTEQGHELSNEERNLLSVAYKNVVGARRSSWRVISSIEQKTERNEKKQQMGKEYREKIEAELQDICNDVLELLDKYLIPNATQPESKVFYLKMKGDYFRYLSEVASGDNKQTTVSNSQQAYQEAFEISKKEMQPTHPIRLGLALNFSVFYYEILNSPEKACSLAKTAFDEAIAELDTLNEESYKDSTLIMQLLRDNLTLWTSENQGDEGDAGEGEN

[9] = molecular target: T2, FLAG-YWHAB, P31946; assay: as above; settings: remark: other sources report otherwise
T2 chain: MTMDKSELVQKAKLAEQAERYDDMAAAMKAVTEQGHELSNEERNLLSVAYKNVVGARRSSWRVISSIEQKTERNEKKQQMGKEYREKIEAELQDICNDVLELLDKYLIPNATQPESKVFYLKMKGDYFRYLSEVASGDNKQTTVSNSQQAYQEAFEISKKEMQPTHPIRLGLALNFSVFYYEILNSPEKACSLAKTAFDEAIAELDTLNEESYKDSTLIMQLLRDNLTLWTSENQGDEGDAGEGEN

Molecule: Cc1cc2c3c(c1)-c1c(O)cc(-c4cc5ccc(O)cc5o4)cc1OC3(c1ccc(O)cc1O)Oc1cc(O)ccc1-2 (centres unmarked) [Albanol B, albanol B]
IC50 in normal liver cells [1]: relatively low
IC50 [2]: < 20 µM
migration of MHCC97 H (Transwell) [3]: significantly inhibited the migration of MHCC97 H
viability of HCC cells (CCK8) [4]: significantly inhibited the viability of HCC cells

Molecule: CC(C)=CCc1c(-c2ccc(O)cc2O)oc2c([C@H]3C=C(C)C[C@@H](c4ccc(O)cc4O)[C@@H]3C(=O)c3ccc(O)cc3O)c(O)cc(O)c2c1=O [Kuwanon G, kuwanon G]
IC50 [2]: < 20 µM

Molecule: CC(C)=CCC/C(C)=C/Cc1c(O)ccc(-c2oc3cc(O)cc(O)c3c(=O)c2CC=C(C)C)c1O [L8-06, 3'-geranyl-3-prenyl-2',4',5,7-tetrahydroxyflavone]
IC50 ([2]; Homo sapiens, MHCC97H): < 20 µM

Molecule: CC(C)=CCc1c(-c2ccc(O)cc2O)oc2c3c(cc(O)c2c1=O)OC(C)(C)C=C3 [Morusin]
IC50 ([2]; Homo sapiens, MHCC97H): < 20 µM

Molecule: CC(C)(O)CCc1c(-c2ccc(O)cc2O)oc2c3c(cc(O)c2c1=O)OC(C)(C)C=C3 [Morusinol]
IC50 ([2]; Homo sapiens, MHCC97H): < 20 µM

Molecule: CC(C)=CCc1c(-c2ccc(O)cc2O)oc2c(CC=C(C)C)c(O)cc(O)c2c1=O [Mulberrin]
IC50 [2]: < 20 µM

Molecule: CNC(=O)c1cc(Oc2ccc(NC(=O)Nc3ccc(Cl)c(C(F)(F)F)c3)cc2)ccn1 [Sorafenib]
IC50 [5]: ~10 µM
IC50 [6]: ~10 µM
HCC cell migration/invasion (Transwell, polycarbonate membrane or Matrigel) [7]: no significant effect

Molecule: sanggenol L
IC50 [2]: < 20 µM
migration of MHCC97 H (Transwell) [3]: significantly inhibited the migration of MHCC97 H
viability of HCC cells (CCK8) [4]: significantly inhibited the viability of HCC cells

Molecule: sanggenone C
IC50 [2]: < 20 µM
viability of HCC cells (CCK8) [4]: significantly inhibited the viability of HCC cells

Molecule: sanggenone D
IC50 [2]: < 20 µM

stoichiometry N [8]: 2
B1: YWHAB (tyrosine 3-monooxygenase/tryptophan 5-monooxygenase activation protein beta), endogenous in HCC cells, P31946 1-246 (natural protein)
chain: MTMDKSELVQKAKLAEQAERYDDMAAAMKAVTEQGHELSNEERNLLSVAYKNVVGARRSSWRVISSIEQKTERNEKKQQMGKEYREKIEAELQDICNDVLELLDKYLIPNATQPESKVFYLKMKGDYFRYLSEVASGDNKQTTVSNSQQAYQEAFEISKKEMQPTHPIRLGLALNFSVFYYEILNSPEKACSLAKTAFDEAIAELDTLNEESYKDSTLIMQLLRDNLTLWTSENQGDEGDAGEGEN

stoichiometry N [9]: 2
B2: FLAG-YWHAB, P31946 1-246 (natural protein)
chain: MTMDKSELVQKAKLAEQAERYDDMAAAMKAVTEQGHELSNEERNLLSVAYKNVVGARRSSWRVISSIEQKTERNEKKQQMGKEYREKIEAELQDICNDVLELLDKYLIPNATQPESKVFYLKMKGDYFRYLSEVASGDNKQTTVSNSQQAYQEAFEISKKEMQPTHPIRLGLALNFSVFYYEILNSPEKACSLAKTAFDEAIAELDTLNEESYKDSTLIMQLLRDNLTLWTSENQGDEGDAGEGEN
